Measured values as given in patent US20040220204A1, “Pharmaceutical composition comprising a tricyclic compound for the prevention or treatment of skin diseases” (priority 2001, published 2004).

Experiment: stabilization of FK506 dissolved in lower alkanediols
Type: physicochemical
Conditions: such as ethylene glycol, propylene glycol, butylene glycol
Experimental: It was also confirmed that carboxybinyl polymer could make FK506 stable, when FK506 was dissolved in lower alkanediols, such as ethylene glycol, propylene glycol, butylene glycol, etc. And, it was further confirmed that a combination of hydroxypropyl cellulose and ascorbyl palmitate could also make FK506 stable, when FK506 was dissolved in lower alkanediols, such as ethylene glycol, propylene glycol, butylene glycol, etc.

stability of FK506 with carboxybinyl polymer (carboxybinyl polymer added): stable
stability of FK506 with a combination of hydroxypropyl cellulose and ascorbyl palmitate (hydroxypropyl cellulose and ascorbyl palmitate added): stable
Compound: C=CC[C@@H]1/C=C(\C)C[C@H](C)C[C@H](OC)[C@H]2O[C@@](O)(C(=O)C(=O)N3CCCC[C@H]3C(=O)O[C@H](/C(C)=C/[C@@H]3CC[C@@H](O)[C@H](OC)C3)[C@H](C)[C@@H](O)CC1=O)[C@H](C)C[C@@H]2OC [FK506, 17-allyl-1,14-dihydroxy-12-[2-(4-hydroxy-3-methoxycyclohexyl)-1-methylvinyl]-23,25-dimethoxy-13,19,21,27-tetramethyl-11,28-dioxa-4-azatricyclo[22.3.1.0^4,9]octacos-18-ene-2,3,10,16-tetraone]
